For one data set, the system named is GH3-TRE-Luc cell line. The note with it: read-out: AC50 (uM) modified / 1000, viability, 1 nM T3 present, 24 h.
The nature of a further data set: in vitro. The note with it: rat, gh3-tre-luc cells, AC50 (uM) modified / 1000.

Where a name gives a salt, the structure may show the parent alone. Read-outs that look alike come from different tables or passages of the source.

Regarding `c1ccc(Nc2ccc3ccccc3c2)cc1` [N-Phenyl-2-naphthylamine], in the data set on GH3-TRE-Luc cell line (Tox21_110001=Tox21_302900), the CC50 was more than 90 µM. The molecule also showed a CC50 at 24 h in the data set “in vitro” of 47.3 µM.
For the molecule `O=C(Nc1ccc([N+](=O)[O-])cc1Cl)c1cc(Cl)ccc1O` [Niclosamide], in the data set with GH3-TRE-Luc cell line (Tox21_110001=Tox21_110209), the CC50 came to 0.618 µM. The CC50 at 24 h in the data set “in vitro” was 0.487 µM.
Regarding `COC(=O)C1=C(C)NC(C)=C(C(=O)OCC(C)C)C1c1ccccc1[N+](=O)[O-]` (stereo not drawn) [Nisoldipine], the CC50 in the data set with GH3-TRE-Luc cell line (Tox21_110001=Tox21_112251) is 37.2 µM. In “in vitro”, the CC50 at 24 h is 51.4 µM.
With `CC(=O)Oc1ccccc1C(=O)Nc1ncc([N+](=O)[O-])s1` [Nitazoxanide], the CC50 in the data set on GH3-TRE-Luc cell line (Tox21_110001=Tox21_111018) stood at 27.7 µM. This molecule showed a CC50 at 24 h in “in vitro” of 23.7 µM.
Turning to `O=C1CN(/N=C/c2ccc([N+](=O)[O-])o2)C(=O)N1` [Nitrofurantoin], in the data set with GH3-TRE-Luc cell line (Tox21_110001=Tox21_300602), the CC50 was 70.6 µM. In the data set “in vitro”, this molecule returned a CC50 at 24 h of 62.5 µM.
With `CCCCCCCCn1sccc1=O` [Octhilinone], the CC50 in the data set with GH3-TRE-Luc cell line (Tox21_110001=Tox21_300566) amounted to 3.8 µM. In “in vitro”, this molecule yielded a CC50 at 24 h of 5.52 µM.
Consider `CC(C)(C)CC(C)(C)c1ccc(O)c(-n2nc3ccccc3n2)c1` [Octrizole], for which the figures for the CC50 in the data set on GH3-TRE-Luc cell line (Tox21_110001=Tox21_112086) and with GH3-TRE-Luc cell line (Tox21_110001=Tox21_300498) were 21.6 µM and 32.7 µM, respectively. The CC50 at 24 h in “in vitro” is 35.4 µM.
Turning to `CCCCCCCCOC(=O)c1ccc(O)cc1` [Octylparaben], in the data set on GH3-TRE-Luc cell line (Tox21_110001=Tox21_303430), the CC50 was determined as 46 µM. This molecule displayed a CC50 at 24 h in “in vitro” of 60.4 µM.
In the case of `OCCN1CCN(CCCN2c3ccccc3C=Cc3ccccc32)CC1` [Opipramol dihydrochloride], the CC50 with GH3-TRE-Luc cell line (Tox21_110001=Tox21_113153) was 8.37 µM. Besides, the CC50 at 24 h in the data set “in vitro” came to 6.78 µM.
As for `CC(C)Oc1cc(-n2nc(C(C)(C)C)oc2=O)c(Cl)cc1Cl` [Oxadiazon], the CC50 in the data set with GH3-TRE-Luc cell line (Tox21_110001=Tox21_300668) worked out at 74.7 µM. In “in vitro”, this molecule came in with a CC50 at 24 h of 50.6 µM.
Turning to `CCOc1cc(Oc2ccc(C(F)(F)F)cc2Cl)ccc1[N+](=O)[O-]` [Oxyfluorfen], the CC50 with GH3-TRE-Luc cell line (Tox21_110001=Tox21_300827) was found to be 50 µM. The molecule also had a CC50 at 24 h in “in vitro” of 79.3 µM.
As to `CCC(CC)Nc1c([N+](=O)[O-])cc(C)c(C)c1[N+](=O)[O-]` [Pendimethalin], the CC50 in the data set with GH3-TRE-Luc cell line (Tox21_110001=Tox21_300867) is more than 90 µM. Moreover, in “in vitro”, the CC50 at 24 h amounted to 76.7 µM.
Consider `Oc1c(Cl)c(Cl)c(Cl)c(Cl)c1Cl` [Pentachlorophenol], for which, in the data set on GH3-TRE-Luc cell line (Tox21_110001=Tox21_300023), the CC50 stood at 29.7 µM. Moreover, in “in vitro”, the CC50 at 24 h came out at 34.5 µM.
Regarding `C=CC(=O)OCC(CO)(COC(=O)C=C)COC(=O)C=C` [Pentaerythritol triacrylate], in the data set on GH3-TRE-Luc cell line (Tox21_110001=Tox21_303252), the CC50 worked out at 2.61 µM. The same molecule returned a CC50 at 24 h in the data set “in vitro” of 1.77 µM.
As for `CC(COc1ccccc1)N(CCCl)Cc1ccccc1` (stereo not drawn) [Phenoxybenzamine hydrochloride], the CC50 in the data set with GH3-TRE-Luc cell line (Tox21_110001=Tox21_302978) was found to be 68.5 µM. In “in vitro”, the CC50 at 24 h was found to be 45 µM.
With `O=c1[nH]c2ccccc2n1C1CCN(CCCC(c2ccc(F)cc2)c2ccc(F)cc2)CC1` [Pimozide], the CC50 with GH3-TRE-Luc cell line (Tox21_110001=Tox21_110224) amounted to 7.02 µM. This molecule gave a CC50 at 24 h in “in vitro” of 8.93 µM.
Turning to `CC(C)(C)C(=O)C1C(=O)c2ccccc2C1=O` [Pindone], the CC50 with GH3-TRE-Luc cell line (Tox21_110001=Tox21_303317) was 71.8 µM. The molecule also yielded a CC50 at 24 h in the data set “in vitro” of 60.9 µM.
On to `CCCN(CCOc1c(Cl)cc(Cl)cc1Cl)C(=O)n1ccnc1` [Prochloraz], for which the CC50 with GH3-TRE-Luc cell line (Tox21_110001=Tox21_301179) is 70.8 µM. The CC50 at 24 h in the data set “in vitro” stood at 81.4 µM.
In the case of `CC(=O)[C@H]1CC[C@H]2[C@@H]3CCC4=CC(=O)CC[C@]4(C)[C@H]3CC[C@]12C` [Progesterone], the CC50 with GH3-TRE-Luc cell line (Tox21_110001=Tox21_300307) was found to be 81.7 µM. The molecule further displayed a CC50 at 24 h in the data set “in vitro” of 85.9 µM.
As to `CC(CN1c2ccccc2Sc2ccccc21)N(C)C` (stereo not drawn) [Promethazine hydrochloride], the CC50 in the data set with GH3-TRE-Luc cell line (Tox21_110001=Tox21_302878) turned out to be 23 µM. The CC50 at 24 h in the data set “in vitro” came to 12.2 µM.
As to `CC(C)N(C(=O)CCl)c1ccccc1` [Propachlor], in the data set on GH3-TRE-Luc cell line (Tox21_110001=Tox21_303036), the CC50 came out at 54.1 µM. In “in vitro”, this molecule showed a CC50 at 24 h of 48.7 µM.
In the case of `C#CCOS(=O)OC1CCCCC1Oc1ccc(C(C)(C)C)cc1` (stereo not drawn) [Propargite], the CC50 with GH3-TRE-Luc cell line (Tox21_110001=Tox21_300805) turned out to be 7.01 µM. Moreover, in the data set “in vitro”, the CC50 at 24 h was determined as 5.83 µM.
Take `CC(C)=CC1C(C(=O)OCc2coc(Cc3ccccc3)c2)C1(C)C` (stereo not drawn) [Resmethrin]: the CC50 in the data set on GH3-TRE-Luc cell line (Tox21_110001=Tox21_300920) came out at 55.3 µM. The CC50 at 24 h in the data set “in vitro” is more than 90 µM.
On to `Oc1ccc(/C=C/c2cc(O)cc(O)c2)cc1` [Resveratrol], for which, in the data set on GH3-TRE-Luc cell line (Tox21_110001=Tox21_303376), the CC50 was 36.1 µM. In the data set “in vitro”, this molecule displayed a CC50 at 24 h of 35 µM.
For the molecule `CC(=O)OC/C=C(C)/C=C/C=C(C)/C=C/C1=C(C)CCCC1(C)C` [Retinol acetate], the CC50 in the data set on GH3-TRE-Luc cell line (Tox21_110001=Tox21_201423) is 65.7 µM. The molecule also displayed a CC50 at 24 h in the data set “in vitro” of more than 50 µM.
As for `CC1=C(/C=C/C(C)=C/C=C/C(C)=C/CO)C(C)(C)CCC1` [Retinol], the CC50 in the data set on GH3-TRE-Luc cell line (Tox21_110001=Tox21_300287) was determined as 85.7 µM. Besides, the CC50 at 24 h in “in vitro” was determined as 63.5 µM.
In the case of `CO[C@H]1/C=C/O[C@@]2(C)Oc3c(C)c(O)c4c(O)c(c(/C=N/N5CCN(C)CC5)c(O)c4c3C2=O)NC(=O)/C(C)=C\C=C\[C@H](C)[C@H](O)[C@@H](C)[C@@H](O)[C@@H](C)[C@H](OC(C)=O)[C@@H]1C` [Rifampicin], the CC50 with GH3-TRE-Luc cell line (Tox21_110001=Tox21_111329) was 24.2 µM; in the data set on GH3-TRE-Luc cell line (Tox21_110001=Tox21_300550) it was 32.4 µM. Besides, the CC50 at 24 h in the data set “in vitro” came out at 29.8 µM.
On to `O=C1NCCN1CCN1CCC(c2cn(-c3ccc(F)cc3)c3ccc(Cl)cc23)CC1` [Sertindole], for which, in the data set on GH3-TRE-Luc cell line (Tox21_110001=Tox21_113421), the CC50 was 6.74 µM. In the data set “in vitro”, this molecule showed a CC50 at 24 h of 5.55 µM.
Take `CCCCCCCCCCCCc1ccccc1S(=O)(=O)O` [Sodium dodecylbenzenesulfonate]: the CC50 in the data set on GH3-TRE-Luc cell line (Tox21_110001=Tox21_300506) was 77.4 µM. Also, the CC50 at 24 h in “in vitro” stood at 49.5 µM.
Turning to `O=C(CCCCCCC(=O)Nc1ccccc1)NO` [Suberoylanilide hydroxamic acid], the CC50 in the data set with GH3-TRE-Luc cell line (Tox21_110001=Tox21_112605) came to 2.46 µM. The molecule further returned a CC50 at 24 h in the data set “in vitro” of 2.15 µM.
For the molecule `CC(C)(C)C(O)(CCc1ccc(Cl)cc1)Cn1cncn1` (stereo not drawn) [Tebuconazole], in the data set on GH3-TRE-Luc cell line (Tox21_110001=Tox21_300487), the CC50 was determined as 57.7 µM. In addition, the CC50 at 24 h in the data set “in vitro” was determined as 64.3 µM.
Regarding `Oc1cccc(-c2c3nc(c(-c4cccc(O)c4)c4ccc([nH]4)c(-c4cccc(O)c4)c4nc(c(-c5cccc(O)c5)c5ccc2[nH]5)CC4)C=C3)c1` [Temoporfin], the CC50 in the data set on GH3-TRE-Luc cell line (Tox21_110001=Tox21_113297) amounted to 11.2 µM. In “in vitro”, the CC50 at 24 h is 13.6 µM.
With `CCNc1nc(NC(C)(C)C)nc(SC)n1` [Terbutryn], in the data set with GH3-TRE-Luc cell line (Tox21_110001=Tox21_303141), the CC50 is 74.8 µM. Also, the CC50 at 24 h in “in vitro” was more than 90 µM.
Turning to `C=CC(=O)OCCOCCOCCOCCOC(=O)C=C` [Tetraethylene glycol diacrylate], the CC50 with GH3-TRE-Luc cell line (Tox21_110001=Tox21_202993) amounted to 17.8 µM. In addition, the CC50 at 24 h in the data set “in vitro” turned out to be 17.7 µM.
`CCN(CC)CCSC(=O)C(c1ccccc1)c1ccccc1` [Thiphenamil]: in the data set with GH3-TRE-Luc cell line (Tox21_110001=Tox21_111676), the CC50 was 30.2 µM. In addition, the CC50 at 24 h in “in vitro” turned out to be 41 µM.

Values taken from paper PMC6792352, “Limited Chemical Structural Diversity Found to Modulate Thyroid Hormone Receptor in the Tox21 Chemical Library” (Environmental Health Perspectives, 2019).
